Measured values: patent US20240190821A1, “SULFONAMIDE SUBSTITUTED N-(1H-INDOL-7-YL)BENZENESULFONAMIDES AND USES THEREOF” (Triana Biomedicines, Inc., priority 2021, published 2024)
Like-named read-outs stand apart in the source and are kept apart here.

Key:
[1] = molecular target: T1, DCAF15-RBM39 ternary complex (Homo sapiens, UniProt Q14498+Q66K64); assay: Compound-induced DCAF15-RBM39 ternary complex formation, AlphaLISA; assay type: biochemical; conditions: AlphaLISA, His-tagged DCAF15 complex and biotin-carrying RBM39; read-out: Ternary-RBM39 (RRM2) EC50
T1 construct: (RRM2)
T1 sequence (Q66K64 whole entry): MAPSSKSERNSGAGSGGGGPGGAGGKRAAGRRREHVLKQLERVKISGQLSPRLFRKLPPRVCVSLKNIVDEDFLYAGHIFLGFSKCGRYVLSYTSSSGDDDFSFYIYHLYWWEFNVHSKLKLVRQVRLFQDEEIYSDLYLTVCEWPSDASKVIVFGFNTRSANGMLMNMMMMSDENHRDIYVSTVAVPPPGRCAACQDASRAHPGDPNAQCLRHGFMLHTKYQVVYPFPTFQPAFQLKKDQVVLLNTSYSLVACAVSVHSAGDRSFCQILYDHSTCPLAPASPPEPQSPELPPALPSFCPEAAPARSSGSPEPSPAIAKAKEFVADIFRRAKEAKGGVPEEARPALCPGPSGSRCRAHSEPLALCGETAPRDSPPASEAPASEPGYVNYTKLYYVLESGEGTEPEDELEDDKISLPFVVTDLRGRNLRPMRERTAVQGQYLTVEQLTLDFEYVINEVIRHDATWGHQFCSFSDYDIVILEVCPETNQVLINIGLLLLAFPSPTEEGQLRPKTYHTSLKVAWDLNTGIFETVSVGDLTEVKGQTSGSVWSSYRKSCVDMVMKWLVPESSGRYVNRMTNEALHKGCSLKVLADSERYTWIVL
T1 sequence (Q14498 250-328 limits assumed): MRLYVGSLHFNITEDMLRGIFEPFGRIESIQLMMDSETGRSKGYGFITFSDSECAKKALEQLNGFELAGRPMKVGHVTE
T1 sequence (Q16531 whole entry partner): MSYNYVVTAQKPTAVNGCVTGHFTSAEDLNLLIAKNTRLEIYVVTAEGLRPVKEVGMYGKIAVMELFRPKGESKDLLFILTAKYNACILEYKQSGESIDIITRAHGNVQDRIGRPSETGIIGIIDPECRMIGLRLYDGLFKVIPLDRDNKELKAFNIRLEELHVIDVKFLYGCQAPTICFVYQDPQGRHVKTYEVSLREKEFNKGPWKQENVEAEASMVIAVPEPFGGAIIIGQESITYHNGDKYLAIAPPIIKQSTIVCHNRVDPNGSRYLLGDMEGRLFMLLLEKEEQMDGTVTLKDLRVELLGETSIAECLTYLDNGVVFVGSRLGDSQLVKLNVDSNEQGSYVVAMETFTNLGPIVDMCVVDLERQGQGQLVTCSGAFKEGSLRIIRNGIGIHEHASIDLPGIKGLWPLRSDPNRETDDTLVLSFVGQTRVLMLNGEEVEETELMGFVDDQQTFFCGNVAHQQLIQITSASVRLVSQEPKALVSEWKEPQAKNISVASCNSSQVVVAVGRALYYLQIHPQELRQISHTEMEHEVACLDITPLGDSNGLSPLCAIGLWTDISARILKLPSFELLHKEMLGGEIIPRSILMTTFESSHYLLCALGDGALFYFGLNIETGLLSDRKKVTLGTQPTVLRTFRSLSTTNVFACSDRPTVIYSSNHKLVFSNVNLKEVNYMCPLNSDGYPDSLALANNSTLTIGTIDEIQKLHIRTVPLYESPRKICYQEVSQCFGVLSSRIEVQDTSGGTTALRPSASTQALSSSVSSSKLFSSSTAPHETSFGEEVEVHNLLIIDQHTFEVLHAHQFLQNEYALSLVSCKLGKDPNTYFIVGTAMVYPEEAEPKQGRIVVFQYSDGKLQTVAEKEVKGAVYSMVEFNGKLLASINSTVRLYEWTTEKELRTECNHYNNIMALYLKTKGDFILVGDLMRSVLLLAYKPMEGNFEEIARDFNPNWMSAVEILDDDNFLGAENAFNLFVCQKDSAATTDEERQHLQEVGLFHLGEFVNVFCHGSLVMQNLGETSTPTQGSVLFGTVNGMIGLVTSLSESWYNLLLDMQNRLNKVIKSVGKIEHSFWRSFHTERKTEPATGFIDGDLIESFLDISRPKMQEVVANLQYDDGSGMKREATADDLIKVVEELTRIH
How it was run: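 Protein mixture incubated with compounds for one hour at room temperature; AlphaLISA beads then added sequentially, 1-2 h at room temperature after each. No-compound wells served as negative controls; His-tagged biotinylated GST tracked assay performance.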

RBM39 = molecular target: T2, RBM39 (Homo sapiens, UniProt Q14498+Q66K64); assay: Western blot assay for degradation of RBM39 in HCT116 cells; assay type: cell-based; conditions: HCT116, 4 h
T2 construct: endogenous in cells; host or cells: HCT116
Procedure: Example 107: Western Blot Assay Procedure for Assessing Degradation of RBM39 in HCT116 Cells
HCT116 cells were used with passage numbers ranging from 13 to 25. Cells were seeded in 12-well plated at a density of 1 million cells per well in 1 mL cell culture medium containing McCoy's 5A medium (Cat. #16600082, ThermoFisher, Waltham, MA), 10% Fetal Bovine Serum (Cat. #26140, ThermoFisher, Waltham, MA) and 1% Pen-Strep (Cat. #. 15070063, ThermoFisher, Waltham, MA) and incubated overnight. The next morning, compounds were serially diluted (1:3, 9 points) in the medium separately and were prepared 2× the final assay concentration. Subsequently, 1.0 mL medium containing DMSO or the appropriate concentration of each compound was added to respective wells. The final DMSO concentration in each well was 0.1%. […] Cells were then washed once with 1 mL of ice cold Dulbecco's phosphate-buffered saline (Cat. #28374, ThermoFisher, Waltham, MA) and then lysed with 100 μl of lysis buffer containing 1× RIPA (Cat. #. 89900, ThermoFisher, Waltham, MA) and HALT protease and phosphatase inhibitor (Cat. #78442, ThermoFisher, Waltham, MA) on ice for 10 minutes with intermittent rocking. Lysates were then sonicated in a sonication bath (3 pulses of 10 sec each with 1 min incubation on ice between each pulse). Samples were then centrifuged for 20 min at 14,000 rpm for 20 min. Supernatants were then transferred to fresh microfuge tubes and stored frozen at −80° C. until use. Total protein quantitation in lysate samples was done using the BCA protein quantitation kit following the manufacturer's instructions. For polyacrylamide gel electrophoresis, each sample ([…] total protein), was diluted with Laemmli sample buffer (Cat. #. 1610747, BioRad, Hercules, CA) by adding 9 ul of lysate to 3 ul of sample buffer containing 10% β-mercaptoethanol. Samples were then denatured at 95° C. for 5 minutes in a heat block, centrifuged at 14,000 rpm for 5 min, and placed on ice. Subsequently, 12 ul of each sample was loaded on 4-20% Tris/Glycine gels and electrophoresed in 1×Tris/Glycine SDS buffer at 80 (constant) volts for 2 h. Resolved samples were then transferred from gels to PVDF membrane using the BioRad Turbo-transfer unit with the Turbo default program (Cat. #. 1704150EDU, BioRad, Hercules, CA). For immunoblotting, membranes were first blocked for 1 hour at room temperature using Odyssey Blocking Buffer (Cat. #: 927-60001, Li-cor, Lincoln, NE) with continuous rocking. Membrane was then incubated with primary antibodies, anti-RBM39 (Sigma Cat. #: HPA001591, St. Louis, MO) and anti-β-actin (Cell Signaling Cat. #3700S, Danvers, MA), diluted 1000 fold each, at 4° C. for overnight. Subsequently, membrane was washed three times for at room temperature with continuous rocking (5 minutes each wash) using TBS buffer containing 0.1% Tween-20. After the final wash, secondary antibodies, IRDye 680 RD Goat anti Mouse IgG H+L (Cat. #: 926-68070, Li-cor, Lincoln, NE), and IRDye 800CW Goat anti Rabbit IgG H+L (Cat. #: 926-32211, Li-cor, Lincoln, NE), each diluted 10,000-fold, were added to the membranes and incubated at room temperature for 1 h with continuous rocking. Membranes were then washed 3 times with 1×TBS and scanned using Odessey CLx imaging system (Li-cor, Lincoln, NE) using default settings. Band intensity in images was quantified using the Image Studio Lite software (Version 5.2). Signal intensity for RBM-39 specific bands were normalized using the signal intensity for β-actin-specific band, and percent degradation was assessed by comparing RBM39 signal in compound-treated vs. DMSO-treated samples.

HCT116 cells = assay: HCT116 cell viability using CellTiter-Glo; assay type: cell-based; conditions: read-out: 3-Day CTG IC50 in HCT116
Procedure: Example 108: Measurement of HCT116 Cell Viability Using CellTiter-Glo
HCT116 cells with the passage number ranging from 13 to 25 were plated in an opaque-walled 384 well plate (Corning, Cat. #3765, Corning, NY) at a density of 1000 cells/well in 50 μl medium containing McCoy's 5A medium (Cat. #16600082, ThermoFisher, Waltham, MA), 10% Fetal Bovine Serum (Cat. #26140, ThermoFisher, Waltham, MA) and 1% Pen-Strep (Cat. #. 15070063, ThermoFisher, Waltham, MA). After overnight incubation, cells were treated with various concentrations of compounds (0-10 μM) in DMSO (final concentration of 0.2% DMSO) for 72 h. CellTiter-Glo® Reagent (Cat. #G7573, Promega, Waltham, MA) was then added to all wells. The plates were placed on an orbital shaker to mix the content and induce cell lysis. The plates were then incubated at room temperature for 10 minutes to stabilize luminescent signal. The luminescence was recorded using Envision multilabel plate reader (Perkin-Elmers, Waltham, MA) and the data was fit by using Excel-fit (Microsoft, Redmond, WA).

DCAF15 = DCAF15 (Homo sapiens, UniProt Q66K64); assay: Binary interaction between compounds and DCAF15, HTRF competition assay; assay type: binding; conditions: HTRF competition with Alexa Fluor 647 tracer, His-tagged DCAF15 complex; read-out: DCAF15 IC50
Chain of DCAF15 (Q66K64 whole entry): as the sequence (Q66K64 whole entry) above
Chain of DCAF15 (Q16531 whole entry partner): as the sequence (Q16531 whole entry partner) above
How it was run: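 HTRF competition format: DCAF15 premixed 15 min at room temperature with anti-6His-Eu cryptate antibody, then combined with tracer and compound. Binding derived from ratiometric signal with titration curves; no-DCAF15 wells as controls.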

[2] = Homo sapiens, HCT-116, HCT116, 72 h

SMILES	EC50 [1]	DC50 (RBM39)	IC50 (HCT116 cells; HCT116, 72 h)	IC50 (DCAF15)	IC50 (HCT116 cells; [2])
Nc1ccc(S(=O)(=O)Nc2cnc3c(Cl)cccc3n2)cc1 [CQS, cloroquinoxaline sulfonamide, reference compound]	< 5000 nM	< 100 nM	< 5000 nM		
COC(=O)CNS(=O)(=O)c1ccc(S(=O)(=O)Nc2ccc(Cl)c3c(Cl)c[nH]c23)cc1 [Compound 1, methyl ((4-(N-(3,4-dichloro-1H-indol-7-yl)sulfamoyl)phenyl)sulfonyl) glycinate]	< 1000 nM	< 1000 nM		< 100000 nM	< 1000 nM
COCCNS(=O)(=O)c1ccc(S(=O)(=O)Nc2ccc(Cl)c3c(Cl)c[nH]c23)cc1 [Compound 2, N^1-(3,4-dichloro-1H-indol-7-yl)-N^4-(2-methoxyethyl)benzene-1,4-disulfonamide]	< 1000 nM				< 1000 nM
NCCCCCCCNS(=O)(=O)c1ccc(S(=O)(=O)Nc2ccc(Cl)c3c(Cl)c[nH]c23)cc1 [Compound 8, N^1-(7-aminoheptyl)-N^4-(3,4-dichloro-1H-indol-7-yl)benzene-1,4-disulfonamide]	< 1000 nM	< 1000 nM			
O=S(=O)(Nc1ccc(Cl)c2c(Cl)c[nH]c12)c1ccc(S(=O)(=O)N2CCNCC2)cc1 [Compound 42, N-(3,4-dichloro-1H-indol-7-yl)-4-(piperazin-1-ylsulfonyl)benzenesulfonamide]	< 1000 nM	< 1000 nM			< 100 nM
N#Cc1cccc(S(=O)(=O)Nc2ccc(Cl)c3c(Cl)c[nH]c23)c1 [Compound 74, 3-cyano-N-(3,4-dichloro-1H-indol-7-yl)benzenesulfonamide]	< 1000 nM	< 100 nM			
Cc1ccc(NS(=O)(=O)c2ccc(-n3ccnn3)cc2)c2[nH]cc(C#N)c12 [Compound 95, N-(3-cyano-4-methyl-1H-indol-7-yl)-4-(1H-1,2,3-triazol-1-yl)benzenesulfonamide]	< 1000 nM	< 100 nM			
Cc1ccc(NS(=O)(=O)c2cccc(-n3ccnn3)c2)c2[nH]cc(C#N)c12 [Compound 96, N-(3-cyano-4-methyl-1H-indol-7-yl)-3-(1H-1,2,3-triazol-1-yl)benzenesulfonamide]	< 1000 nM	< 100 nM		< 20000 nM	
Cc1ccc(NS(=O)(=O)c2cccc(C#N)c2)c2[nH]cc(C(F)F)c12 [Compound 100, 3-cyano-N-(3-(difluoromethyl)-4-methyl-1H-indol-7-yl)benzenesulfonamide]	< 5000 nM				< 1000 nM
Cc1ccc(NS(=O)(=O)c2cc(F)cc(C#N)c2)c2[nH]cc(C(F)F)c12 [Compound 101, 3-cyano-N-(3-(difluoromethyl)-4-methyl-1H-indol-7-yl)-5-fluorobenzene sulfonamide]	< 5000 nM			< 100000 nM	< 1000 nM
Cc1ccc(NS(=O)(=O)c2cccc(C#N)c2)c2[nH]cc(C#N)c12 [Compound E-7820, E-7820, reference compound]					< 1000 nM
NS(=O)(=O)c1ccc(S(=O)(=O)Nc2cccc3c(Cl)c[nH]c23)cc1 [Indisulam, indisulam, reference compound]	< 1000 nM				< 1000 nM
